Measured values taken from patent US20250092017A1, “2-PIPERIDYL OR 2-PYRAZOLYL SUBSTITUTED PYRIMIDINE COMPOUND SERVING AS EGFR INHIBITOR” (SUZHOU PUHE BIOPHARMA CO., LTD., priority 2022, published 2025).
Like-named read-outs stand apart in the source and are kept apart here.

What was measured:
[1] = target: Ba/F3-FL-EGFR-del19/T790M (Homo sapiens, UniProt P00533, DEL746-750/T790M, cells depend on it); experiment: CellTiter-Glo proliferation, Ba/F3-FL-EGFR-del19/T790M; conditions: read-out: Ba/F3-FL-EGFR-del19/T790M IC50/nM, 72 hours
[2] = target: T1, Ba/F3-TEL-EGFR-L858R-C797S (Homo sapiens, UniProt P00533, C797S/L858R, cells depend on it); experiment: CellTiter-Glo proliferation, Ba/F3-TEL-EGFR-L858R-C797S; type: cell-based; conditions: 72 hours, read-out: Ba/F3-TEL-EGFR-L858R-C797S IC50/nM
T1 construct: fused on or other part: N-terminal TEL (ETV6) oligomerising part fused to the EGFR intracellular/kinase part; P41212 (Transcription factor ETV6)
Method in brief: (§1)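 Ba/F3 lines dependent on the indicated EGFR variants were treated with compounds at a final DMSO concentration of 0.1% at 37 °C, 5% CO2. Viability was read by CellTiter-Glo luminescence, and inhibition rate was normalised to DMSO-treated cells (max) and medium-only wells (min). IC50 came from inhibition curves.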

[3] = target: Ba/F3-FL-EGFR-L858R (Homo sapiens, UniProt P00533, L858R, cells depend on it); experiment: CellTiter-Glo proliferation, Ba/F3-FL-EGFR-L858R; type: cell-based; conditions: 72 hours, read-out: Ba/F3-FL-EGFR-L858R IC50/nM
Method in brief: as §1

[4] = tested on: Ba/F3-FL-EGFR-del19-C797S; experiment: CellTiter-Glo proliferation, Ba/F3-FL-EGFR-del19-C797S; type: cell-based; conditions: 72 h, read-out: Ba/F3-FL-EGFR-del19-C797S IC50/nM
Method in brief: as §1

[5] = target: Ba/F3-FL-EGFR-Del19 (E746-A750) (Homo sapiens, UniProt P00533, DEL746-750, cells depend on it); experiment: CellTiter-Glo proliferation, Ba/F3-FL-EGFR-Del19; conditions: read-out: Ba/F3-FL-EGFR-Del19 (E746-A750), 72 hours
[6] = tested on: BaF3 (del19/T790M1C797S) tumor cells; experiment: In vivo efficacy assay in BALB/c nude mice, subcutaneous BaF3 tumor; conditions: oral; for Tumor volume (mm^3): after 13 consecutive days of administration; for TGI: after 13 consecutive days, based on final tumor volume
Method: In vivo efficacy assay in BALB/c nude mice. Details were as follows:
BaF3 (del19/T790M1C797S) tumor cells were cultured and inoculated into 6-8 weeks old female BALB/c nude mice (weighing about 20 g), with all mice being subcutaneously inoculated. The mice were cultured in an SPF-grade experimental environment, and all mice had free access to commercially certified standard diets. When the average tumor volume of the mice grew to about 150 mm^3, the test compound was orally administered daily. The dosage was as follows: blank group vehicle (DMSO/Solutol/H2O, 5/10/85). […] The tumor volume was measured three times a week with a two-dimensional caliper, and the animals were weighed every day. […] The volume calculation formula is: V=1/2a*b^2, where a represents the long diameter of the tumor, and b represents the short diameter of the tumor.

[7] = target: T2, Ba/F3-FL-EGFR (Homo sapiens, UniProt P00533); experiment: CellTiter-Glo proliferation, Ba/F3-FL-EGFR; type: cell-based; conditions: 72 hours, read-out: Ba/F3-FL-EGFR IC50/nM
T2 construct: FL read as full length
Method in brief: as §1

[8] = target: Ba/F3-FL-EGFR-L858R-T790M-C797S (Homo sapiens, UniProt P00533, T790M/C797S/L858R, cells depend on it); experiment: CellTiter-Glo proliferation, Ba/F3-FL-EGFR-L858R-T790M-C797S; type: cell-based; conditions: 72 hours, read-out: Ba/F3-FL-EGFR-L858R-T790M-C797S IC50/nM
Method in brief: as §1

[9] = target: Ba/F3-FL-EGFR-del19-T790M-C797S (Homo sapiens, UniProt P00533, DEL746-750/T790M/C797S, cells depend on it); experiment: CellTiter-Glo proliferation, Ba/F3-FL-EGFR-del19-T790M-C797S; type: cell-based; conditions: 72 hours, read-out: Ba/F3-FL-EGFR-del19-T790M-C797S IC50/nM
Method: Promega CellTiter-Glo reagent was used to detect the effects of small molecule inhibitors on the proliferation of three Ba/F3 cell lines (Ba/F3-FL-EGFR-de119, Ba/F3-FL-EGFR-de119-T790M, Ba/F3-FL-EGFR-de119-T790M-C797S).
The cell lines were cultured in an incubator at 37° C. and 5% CO2. Cells were passaged regularly and cells in the logarithmic phase were used for plating. 95 μL of cell suspension was added to each well of the cell plate, and culture medium without cells (containing 0.1% DMSO) was added to the Min control wells. Substance addition for compound detection cell plate: 5 μL of 20× compound working solution was added to the cell culture plate. 5 μL of DMSO-cell culture medium mixture was added to the Max control, with the final DMSO concentration of 0.1%. 5 μL of DMSO-cell culture medium mixture was added to the Max control. The final DMSO concentration was 0.1%.
Cell viability was detected by CellTiter-Glo luminescence assay. Data analysis:
The cell proliferation inhibition rate (Inhibition Rate) data was processed using the following formula: […]
wherein: RLUDrug represents the relative luminescence unit of the cells with the addition of drug, RLUMin represents the luminescence unit of the culture medium, and RLUMax represents the relative luminescence unit of the cells with the addition of DMSO.
The inhibition rates corresponding to different concentrations of compounds were calculated in EXCEL, and then the inhibition rate curve was plotted using GraphPad Prism software and related parameters including the maximum and minimum inhibition rates of cells and IC50 values were calculated.

[10] = Liver microsome stability test, mouse; type: in vitro ADME; conditions: mouse liver microsomes 0.5 mg/ml, compound 1 μM, NADPH 1 mM, within 60 minutes
Method: (§2) The compounds of the present disclosure were subjected to a liver microsome stability test. The compounds to be tested were co-incubated with liver microsomes of different species with or without the addition of NADPH. The final concentration of the compounds to be tested in the test system was 1 μM. The final concentration of NADPH was 1 mM, and the final concentration of liver microsomes was 0.5 mg/ml.

[11] = Liver microsome stability test, human; type: in vitro ADME; conditions: human liver microsomes 0.5 mg/ml, compound 1 μM, NADPH 1 mM, within 60 minutes
Method: as §2

[12] = target: EGFR (L858R) (Homo sapiens, UniProt P00533, L858R); experiment: MSA (Mobility Shift Assay) kinase activity, EGFR-L858R; type: biochemical
Method: (§3) The MSA (Mobility Shift Assay) method was used to detect the effects of small molecule inhibitors on the kinase activity of EGFR wild type and its mutants (EGFR^wt, EGFR-L858R, EGFR-L858R-T790M-C797S, EGFR-L858R-C797S).
(§4) 10 μL of kinase solution at 2.5 times the final concentration was added to the compound wells and positive control Max wells; 10 μL of 1x kinase buffer was added to the negative control Min wells. The mixture was centrifuged at 1000 rpm for 30 seconds, and the reaction plate was shaken to mix the solution well and then incubated at room temperature for 10 minutes. A mixed solution of ATP and kinase substrate at 5/3 times the final concentration was prepared in 1x kinase buffer. 15 μL of a mixed solution of ATP and substrate at 5/3 times the final concentration was added to initiate the reaction. The 384-well plate was centrifuged at 1000 rpm for 30 seconds, and shaken to mix the solution well and then incubated at room temperature for the corresponding time. 30 μL of stop detection solution was added to stop the kinase reaction, and the mixture was centrifuged at 1000 rpm for 30 seconds, and then to mixed well by shaking. The conversion rate was read using Caliper EZ Reader.
(§5) wherein: Conversion %_sample is the conversion rate reading of the sample; Conversion %_min is the mean of the negative control wells, representing the conversion rate reading of the wells without enzyme activity; Conversion %_max is the mean of the positive control wells, representing the conversion rate reading of the wells without compound inhibition.
(§6) The log (inhibitor) vs. response —Variable slope of the analysis software GraphPad Prism 5 was used to fit the dose-effect curve, where the log value of the concentration was used as the X-axis and the percentage inhibition rate was used as the Y-axis, to obtain the IC50 value of each compound on the enzyme activity.
(§7) The calculation formula is Y=Bottom+(Top-Bottom)/(1+10^((Log IC50−X)*Hill Slope))

[13] = target: EGFR (L858R/C797S) (Homo sapiens, UniProt P00533, C797S/L858R); experiment: MSA (Mobility Shift Assay) kinase activity, EGFR-L858R-C797S; type: biochemical
Method: as §3, §4, §5, §6, §7

[14] = target: EGFR (wild-type) (Homo sapiens, UniProt P00533); experiment: MSA (Mobility Shift Assay) kinase activity, EGFR wild type; type: biochemical; conditions: read-out: EGFR wt/ IC50/nM
Method: as §3, §4, §5, §6, §7

[15] = target: EGFR (L858R/T790M/C797S) (Homo sapiens, UniProt P00533, C797S/L858R/T790M); experiment: MSA (Mobility Shift Assay) kinase activity, EGFR-L858R-T790M-C797S; type: biochemical
Method: as §3, §4, §5, §6, §7

[16] = proliferation, 72 hours, CellTiter-Glo

Sequence of Ba/F3-FL-EGFR-Del19 (E746-A750) (P00533 with tags, fused parts or gaps DEL746-750): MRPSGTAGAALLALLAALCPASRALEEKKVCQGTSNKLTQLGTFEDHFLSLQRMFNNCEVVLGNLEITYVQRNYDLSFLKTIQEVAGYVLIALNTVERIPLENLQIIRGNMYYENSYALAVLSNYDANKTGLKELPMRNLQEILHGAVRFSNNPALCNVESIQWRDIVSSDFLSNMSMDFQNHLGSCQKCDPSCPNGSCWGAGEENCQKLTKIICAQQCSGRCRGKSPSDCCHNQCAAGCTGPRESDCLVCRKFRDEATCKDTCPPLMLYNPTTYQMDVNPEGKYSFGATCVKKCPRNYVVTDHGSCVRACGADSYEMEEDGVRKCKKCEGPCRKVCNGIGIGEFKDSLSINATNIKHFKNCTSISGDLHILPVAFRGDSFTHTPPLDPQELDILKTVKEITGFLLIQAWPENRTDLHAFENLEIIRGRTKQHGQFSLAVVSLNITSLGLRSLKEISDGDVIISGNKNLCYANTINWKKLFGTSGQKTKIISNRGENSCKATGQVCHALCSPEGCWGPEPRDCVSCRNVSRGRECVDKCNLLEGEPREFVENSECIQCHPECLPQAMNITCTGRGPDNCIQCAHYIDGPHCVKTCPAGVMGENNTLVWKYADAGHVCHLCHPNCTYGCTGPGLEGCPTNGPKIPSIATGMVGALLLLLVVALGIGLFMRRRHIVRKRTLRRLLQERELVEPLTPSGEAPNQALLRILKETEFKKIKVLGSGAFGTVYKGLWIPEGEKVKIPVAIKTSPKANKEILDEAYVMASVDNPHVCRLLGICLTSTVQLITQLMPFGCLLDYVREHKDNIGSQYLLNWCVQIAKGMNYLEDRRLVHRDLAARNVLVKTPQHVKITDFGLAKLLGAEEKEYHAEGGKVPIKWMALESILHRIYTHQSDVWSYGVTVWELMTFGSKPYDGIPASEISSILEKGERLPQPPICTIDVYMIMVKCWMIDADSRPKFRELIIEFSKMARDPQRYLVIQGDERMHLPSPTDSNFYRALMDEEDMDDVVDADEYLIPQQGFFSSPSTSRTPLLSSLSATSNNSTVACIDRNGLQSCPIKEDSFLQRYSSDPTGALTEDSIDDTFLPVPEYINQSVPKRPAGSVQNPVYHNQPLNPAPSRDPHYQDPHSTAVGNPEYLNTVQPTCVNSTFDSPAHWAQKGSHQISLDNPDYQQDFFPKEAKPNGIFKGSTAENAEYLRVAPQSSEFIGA
T1 sequence (P00533 whole entry C797S/L858R, the tested form may be a part): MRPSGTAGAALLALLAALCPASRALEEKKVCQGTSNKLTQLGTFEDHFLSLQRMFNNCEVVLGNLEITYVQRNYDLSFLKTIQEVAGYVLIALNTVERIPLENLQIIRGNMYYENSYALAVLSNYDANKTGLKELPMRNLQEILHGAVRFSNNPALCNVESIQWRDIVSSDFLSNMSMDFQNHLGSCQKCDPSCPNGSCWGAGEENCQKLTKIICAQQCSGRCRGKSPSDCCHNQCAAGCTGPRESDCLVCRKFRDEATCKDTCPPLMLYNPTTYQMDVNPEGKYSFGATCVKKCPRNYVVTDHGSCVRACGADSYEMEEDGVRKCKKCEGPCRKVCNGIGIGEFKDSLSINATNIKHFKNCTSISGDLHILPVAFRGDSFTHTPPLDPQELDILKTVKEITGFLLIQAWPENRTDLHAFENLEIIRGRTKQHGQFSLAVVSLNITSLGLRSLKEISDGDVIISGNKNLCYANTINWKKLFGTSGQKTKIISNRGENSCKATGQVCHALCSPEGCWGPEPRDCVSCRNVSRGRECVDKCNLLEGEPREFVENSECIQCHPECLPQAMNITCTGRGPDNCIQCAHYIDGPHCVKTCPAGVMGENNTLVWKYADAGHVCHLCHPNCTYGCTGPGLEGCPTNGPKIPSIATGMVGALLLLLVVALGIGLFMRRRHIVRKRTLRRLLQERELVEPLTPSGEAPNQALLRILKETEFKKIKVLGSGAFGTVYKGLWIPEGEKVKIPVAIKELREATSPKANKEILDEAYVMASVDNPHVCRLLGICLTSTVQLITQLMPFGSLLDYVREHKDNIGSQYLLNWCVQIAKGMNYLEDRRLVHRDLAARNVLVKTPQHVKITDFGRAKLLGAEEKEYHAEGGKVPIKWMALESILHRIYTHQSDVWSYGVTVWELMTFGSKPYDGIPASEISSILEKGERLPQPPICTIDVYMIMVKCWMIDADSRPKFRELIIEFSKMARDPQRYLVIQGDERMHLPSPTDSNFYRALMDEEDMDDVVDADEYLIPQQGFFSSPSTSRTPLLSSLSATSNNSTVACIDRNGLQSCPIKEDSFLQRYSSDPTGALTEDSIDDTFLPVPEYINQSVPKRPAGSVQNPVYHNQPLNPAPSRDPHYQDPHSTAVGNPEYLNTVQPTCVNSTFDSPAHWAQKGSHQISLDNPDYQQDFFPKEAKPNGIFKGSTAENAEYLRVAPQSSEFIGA
Sequence of Ba/F3-FL-EGFR-L858R (P00533 whole entry L858R): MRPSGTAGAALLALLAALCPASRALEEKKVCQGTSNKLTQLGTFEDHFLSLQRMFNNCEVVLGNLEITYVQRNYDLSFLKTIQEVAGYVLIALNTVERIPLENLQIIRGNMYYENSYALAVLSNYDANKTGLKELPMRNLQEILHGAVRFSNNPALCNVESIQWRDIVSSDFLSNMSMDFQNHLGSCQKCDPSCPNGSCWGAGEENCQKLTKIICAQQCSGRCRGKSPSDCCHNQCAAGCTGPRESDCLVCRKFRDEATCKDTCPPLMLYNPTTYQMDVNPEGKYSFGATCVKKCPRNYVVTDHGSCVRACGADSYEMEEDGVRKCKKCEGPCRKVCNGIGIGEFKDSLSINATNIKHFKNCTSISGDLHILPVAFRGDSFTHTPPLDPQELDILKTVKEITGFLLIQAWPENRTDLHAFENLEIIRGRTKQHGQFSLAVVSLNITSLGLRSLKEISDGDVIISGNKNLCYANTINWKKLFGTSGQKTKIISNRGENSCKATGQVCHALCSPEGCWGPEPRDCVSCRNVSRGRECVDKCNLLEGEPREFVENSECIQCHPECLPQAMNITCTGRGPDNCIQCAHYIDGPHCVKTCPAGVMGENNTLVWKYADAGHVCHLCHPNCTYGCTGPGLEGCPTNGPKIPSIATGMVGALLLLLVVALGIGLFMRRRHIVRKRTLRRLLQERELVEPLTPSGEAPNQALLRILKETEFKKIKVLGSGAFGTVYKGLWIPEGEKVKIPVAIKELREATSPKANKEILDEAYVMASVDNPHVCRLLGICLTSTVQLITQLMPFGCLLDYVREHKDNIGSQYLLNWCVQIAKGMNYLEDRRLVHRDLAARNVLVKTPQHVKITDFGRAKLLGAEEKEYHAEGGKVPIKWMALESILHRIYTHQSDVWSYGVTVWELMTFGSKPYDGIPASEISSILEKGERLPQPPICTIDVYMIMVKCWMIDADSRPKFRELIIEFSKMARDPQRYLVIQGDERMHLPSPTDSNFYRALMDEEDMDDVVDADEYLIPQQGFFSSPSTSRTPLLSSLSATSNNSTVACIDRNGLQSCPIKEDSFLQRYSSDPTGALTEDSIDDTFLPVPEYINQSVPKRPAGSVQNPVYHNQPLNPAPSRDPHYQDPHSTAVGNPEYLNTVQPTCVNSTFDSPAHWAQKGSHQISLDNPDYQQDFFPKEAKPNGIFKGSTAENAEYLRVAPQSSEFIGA
Sequence of Ba/F3-FL-EGFR-L858R-T790M-C797S (P00533 whole entry T790M/C797S/L858R): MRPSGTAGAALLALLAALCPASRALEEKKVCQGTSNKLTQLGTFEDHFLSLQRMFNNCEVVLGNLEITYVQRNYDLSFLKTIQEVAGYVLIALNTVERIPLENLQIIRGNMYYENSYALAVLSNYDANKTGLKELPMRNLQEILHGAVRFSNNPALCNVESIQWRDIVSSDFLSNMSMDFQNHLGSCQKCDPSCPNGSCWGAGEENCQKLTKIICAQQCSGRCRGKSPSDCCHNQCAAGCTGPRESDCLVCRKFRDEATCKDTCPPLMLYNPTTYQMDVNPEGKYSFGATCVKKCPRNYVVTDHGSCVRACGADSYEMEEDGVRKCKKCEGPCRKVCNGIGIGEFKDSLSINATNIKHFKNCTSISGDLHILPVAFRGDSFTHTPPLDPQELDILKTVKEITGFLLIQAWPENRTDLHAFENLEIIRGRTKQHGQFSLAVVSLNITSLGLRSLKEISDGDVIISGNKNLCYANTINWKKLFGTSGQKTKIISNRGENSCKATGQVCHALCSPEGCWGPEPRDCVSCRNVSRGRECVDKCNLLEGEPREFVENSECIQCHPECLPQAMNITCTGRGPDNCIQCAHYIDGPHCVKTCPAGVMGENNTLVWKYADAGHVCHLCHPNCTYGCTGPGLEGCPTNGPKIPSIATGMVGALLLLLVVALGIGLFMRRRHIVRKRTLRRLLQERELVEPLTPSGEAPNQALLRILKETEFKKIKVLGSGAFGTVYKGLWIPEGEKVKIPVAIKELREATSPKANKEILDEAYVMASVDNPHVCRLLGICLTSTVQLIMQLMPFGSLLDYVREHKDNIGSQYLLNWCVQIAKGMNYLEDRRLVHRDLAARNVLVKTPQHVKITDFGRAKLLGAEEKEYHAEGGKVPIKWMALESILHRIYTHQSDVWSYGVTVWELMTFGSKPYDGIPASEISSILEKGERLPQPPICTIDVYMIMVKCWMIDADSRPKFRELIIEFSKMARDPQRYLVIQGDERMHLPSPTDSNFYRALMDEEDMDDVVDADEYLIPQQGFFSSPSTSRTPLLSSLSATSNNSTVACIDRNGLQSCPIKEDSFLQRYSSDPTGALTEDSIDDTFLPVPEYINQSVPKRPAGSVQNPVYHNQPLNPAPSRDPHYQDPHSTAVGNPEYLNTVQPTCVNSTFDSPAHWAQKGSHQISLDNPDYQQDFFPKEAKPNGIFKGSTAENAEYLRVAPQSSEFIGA

GI50 [1] | GI50 [2] | GI50 [3] | IC50 [4, 16] | GI50 [5] | GI50 [7] | GI50 [8] | GI50 [9] | CLint scaled at 1 μM [10] | CLint scaled at 1 μM [11] | IC50 [12] | IC50 [13] | IC50 [14] | IC50 [15] | Structure (SMILES) | Tumor volume (mm^3) ([6]; 100 mg/kg, BID) | TGI ([6]; 100 mg/kg, BID) | IC50 [4] | Tumor volume (mm^3) ([6]; 25 mg/kg, QD) | TGI ([6]; 25 mg/kg, QD)
3.2 nM | 7.1 nM | 22 nM | 57 nM | 54 nM | 693 nM | 4.6 nM | 5.9 nM | – | – | – | – | – | – | CC(C)c1ccc(N2C[C@H](N(C)S(C)(=O)=O)[C@H]2C)c2cnc(Nc3ccnc(N4CC[C@@H](O)[C@@H](F)C4)n3)cc12 [Compound P41a] | 693 mm^3 | 85% | – | – | –
– | – | – | – | – | – | – | – | – | – | – | – | – | – | C=CC(=O)Nc1cc(Nc2nccc(-c3cn(C)c4ccccc34)n2)c(OC)cc1N(C)CCN(C)C [Osimertinib, osimertinib, reference compound] | – | – | 906 nM | 3110 mm^3 | 20%
5.1 nM | 8.9 nM | 10 nM | 9.2 nM | 15 nM | 259 nM | 21 nM | 7.8 nM | 145 mL/min/kg | 11.7 mL/min/kg | – | – | – | – | CC(C)c1ccc(N2C[C@H](CS(C)(=O)=O)[C@H]2C)c2cnc(Nc3ccnc(-c4cnn(S(C)(=O)=O)c4)n3)cc12 [Compound H30] | – | – | – | – | –
2.3 nM | 5.6 nM | 15 nM | 35 nM | 36 nM | 464 nM | 3.7 nM | 3.7 nM | – | – | – | – | – | – | CC(C)c1ccc(N2C[C@H](N(C)S(C)(=O)=O)[C@H]2C)c2cnc(Nc3ccnc(N4CC[C@H](O)[C@H](F)C4)n3)cc12 [Compound P41b] | – | – | – | – | –
– | 13 nM | 41 nM | 202 nM | – | 1090 nM | 13 nM | – | 440 mL/min/kg | 23.4 mL/min/kg | 1.3 nM | 2.5 nM | 8.4 nM | 0.07 nM | COC1CCN(c2nccc(Nc3cc4c(C(C)C)ccc(N5CC(NS(C)(=O)=O)C5)c4cn3)n2)CC1F (stereo not drawn) [Compound P29] | – | – | – | – | –
